Data published in US11299485B2, “Thiophene derivative and use thereof” (FUJIMOTO CO., LTD., priority 2018, dated 2022).

Tests used:
Type in all cases: cell-based
MM.1S cells = test: Human myeloma cell line MM.1S proliferation suppression test; conditions: MM1.S, 72 h, compound 10 μM, 3 days, WST-1 or WST-8, read-out: cell survival rate (% of control) MM.1S
Protocol: Example 51: Human Myeloma Cell Line MM.1S Proliferation Suppression Test
MM.1S cells (ATCC, CRL-2974) were suspended in 10% fetal calf serum (Thermo Fisher Scientific)-containing RPMI1640 medium (ATCC, hereinafter abbreviated as medium B), and diluted as appropriate with 0.4% trypan blue solution (Sigma-Aldrich Co. LLC.). The number of viable cells was counted with a hemocytometer (ERMA INC.). It was diluted with medium B such that the value obtained was 2×10^5 cells/mL. On the other hand, 50 μL of a solution obtained by diluting 4 mM DMSO solution of the test compound 200-fold with medium B was added to each well of a Falcon 96-well flat bottom plate (Corning Incorporated), and the above-mentioned cell suspension was dispensed at 50 μL/well (final concentration of test compound 10 μM). 50 μL of a solution obtained by diluting DMSO 200-fold with medium B was added to the control well. After culturing at 37° C. in a 5% CO2 stream for 3 days, the cell proliferation activity was measured using WST-1 (DOJINDO LABORATORIES) or WST-8 Kit (KISHIDA CHEMICAL Co., Ltd.) and according to each instruction manual attached thereto.

Daudi cells = test: Human Burkitt lymphoma cell line Daudi proliferation suppression test; conditions: 72 h, compound 10 μM, 3 days, WST-8, read-out: cell survival rate (% of control) Daudi
From the text: Example 54: Human Burkitt Lymphoma Cell Line Daudi Proliferation Suppression Test
Daudi cells (National Institutes of Biomedical Innovation, Health and Nutrition (NIBIOHN), JCRB9071) were suspended in medium B, and diluted as appropriate with 0.4% trypan blue solution (Sigma-Aldrich Co. LLC.). The number of viable cells was counted with a hemocytometer (ERMA INC.). A cell suspension obtained by diluting with medium B such that the value obtained was 1.3×10^5 cells/mL was dispensed into a Falcon 96 well flat bottom plate (Corning Incorporated) at 75 μL/well, and culture was started at 37° C. under 5% CO2 stream. The next day, a solution obtained by diluting 4 mM DMSO solution of the test compound 100-fold with medium B was added by 25 μL to each well (final concentration of test compound 10 μM). 25 μL of a solution obtained by diluting DMSO 100-fold with medium B was added to the control well. After culturing at 37° C. in a 5% CO2 stream for 3 days, the cell proliferation activity was measured according to the instruction manual attached to WST-8 Kit (KISHIDA CHEMICAL Co., Ltd.).

Kasumi-7 cells = test: Human acute lymphoblastic leukemia cell line Kasumi-7 proliferation suppression test; conditions: 72 h, compound 10 μM, 3 days, WST-8, read-out: cell survival rate (% of control) Kasumi-7
From the text: Example 55: Human Acute Lymphoblastic Leukemia Cell Line Kasumi-7 Proliferation Suppression Test
Kasumi-7 cells (NIBIOHN, JCRB1401) were suspended in 20% fetal calf serum (Thermo Fisher Scientific, Inc.)-containing RPMI1640 medium (ATCC, hereinafter abbreviated as medium C), and diluted as appropriate with 0.4% trypan blue solution (Sigma-Aldrich Co. LLC.). The number of viable cells was counted with a hemocytometer (Funakoshi Co., Ltd.). A cell suspension obtained by diluting with medium C such that the value obtained was 1.3×10^5 cells/mL was dispensed into a Falcon 96 well flat bottom plate (Corning Incorporated) at 75 μL/well, and culture was started at 37° C. under 5% CO2 stream. The next day, a solution obtained by diluting 4 mM DMSO solution of the test compound 100-fold with medium C was added by 25 μL to each well (final concentration of test compound 10 μM). 25 μL of a solution obtained by diluting DMSO 100-fold with medium C was added to the control well. After culturing at 37° C. in a 5% CO2 stream for 3 days, the cell proliferation activity was measured according to the instruction manual attached to WST-8 Kit (KISHIDA CHEMICAL Co., Ltd.).

[1] = test system: human peripheral blood mononuclear cells (PBMC); test: Cytotoxicity test using human peripheral blood mononuclear cells (PBMC); conditions: compound 10 μg/mL, LPS, 24 hr, WST-1 or WST-8
Protocol: Example 56: Cytotoxicity Test Using Human Peripheral Blood Mononuclear Cells (PBMC)
Peripheral blood of a healthy adult was collected in a Venoject II vacuum blood collection tube (Terumo, containing EDTA/2Na), and then diluted two-fold with an equal volume of OTSUKA NORMAL SALINE (Otsuka Pharmaceutical Co., Ltd.). The diluted blood was mixed with Lymphoprep (AXIS-SHIELD) in half the volume of the diluted blood, dispensed into a 15 mL conical tube, and centrifuged at room temperature for 20 min (2,100 rpm). The mononuclear cells accumulated at the interface between Lymphoprep and plasma was transferred to a 50 mL conical tube, diluted with OTSUKA NORMAL SALINE, and the mononuclear cells suspension was centrifuged at room temperature for 10 min (1,150 rpm) and then the supernatant was removed. The mononuclear cells fraction obtained as a precipitate was suspended in an appropriate amount of medium A, and diluted as appropriate with 0.4% trypan blue solution (Sigma-Aldrich Co. LLC.). The number of viable cells was counted with a hemocytometer (ERMA INC.). It was diluted with medium A such that the value obtained was 5×10^5 cells/mL. On the other hand, 37.5 μL of medium A, 2.5 μL of 0.4 mg/mL test compound solution (DMSO solution 10-fold diluted with medium A), and 10 μL of 10 μg/mL lipopolysaccharide (Sigma-Aldrich Co. LLC.) solution (diluted with medium A) were each added in advance to the same well of a Falcon 96-well flat bottom plate (Corning Incorporated), and the above-mentioned cell suspension was dispensed at 50 μL/well (final concentration of test compound 10 μg/mL). 2.5 μL of DMSO diluted 10-fold with medium A was added to the control well instead of the compound solution. After culturing at 37° C. in a 5% CO2 stream for 24 hr, the cell survival rate was measured using WST-1 (DOJINDO LABORATORIES) or WST-8 kit (KISHIDA CHEMICAL Co., Ltd.) and according to each instruction manual attached thereto.

| Structure (SMILES) | viability at 10 µM (MM.1S cells) [%] | viability at 10 µM (Daudi cells) [%] | viability at 10 µM (Kasumi-7 cells) [%] | cell survival rate (% of control) PBMC [1] |
| --- | --- | --- | --- | --- |
| O=C1CCC(n2cc(-c3cscc3OCC3CCCCC3)nn2)C(=O)N1 (centres unmarked) [compound 30, 3-{4-[4-(cyclohexylmethoxy)thiophen-3-yl]-1H-1,2,3-triazol-1-yl}piperidine-2,6-dione] | 59 | 76 | 62 | 70 % of control |
| O=C1CCC(n2cc(-c3cscc3OCC3CCCC3)nn2)C(=O)N1 (centres unmarked) [compound 29, 3-{4-[4-(cyclopentylmethoxy)thiophen-3-yl]-1H-1,2,3-triazol-1-yl}piperidine-2,6-dione] | 89 | 79 | 84 | 104 % of control |
| COc1c(-c2cn(C3CCC(=O)NC3=O)nn2)csc1C (centres unmarked) [compound 15, 3-[4-(4-methoxy-5-methylthiophen-3-yl)-1H-1,2,3-triazol-1-yl]piperidine-2,6-dione] | 55 | 61 | 60 | 105 % of control |
| O=C1CCC(n2cc(-c3cscc3OCc3cccc(CN4CCOCC4)c3)nn2)C(=O)N1 (centres unmarked) [compound 39, 3-(4-{4-[3-(morpholinomethyl)benzyloxy]thiophen-3-yl}-1H-1,2,3-triazol-1-yl)piperidine-2,6-dione] | 26 | 30 | 36 | 98 % of control |
| Cl.O=C1CCC(n2cc(-c3cscc3OCc3ccc(CN4CCCC4)cc3)nn2)C(=O)N1 (centres unmarked) [compound 41, 3-(4-{4-[4-(pyrrolidin-1-ylmethyl)benzyloxy]thiophen-3-yl}-1H-1,2,3-triazol-1-yl)piperidine-2,6-dione hydrochloride] | 32 | 24 | 26 | 110 % of control |
| O=C1CCC(n2cc(-c3cscc3OCc3ccccc3)nn2)C(=O)N1 (centres unmarked) [compound 32, 3-{4-[4-(benzyloxy)thiophen-3-yl]-1H-1,2,3-triazol-1-yl}piperidine-2,6-dione] | 27 | 23 | 36 | 66 % of control |
| COc1cscc1-c1nnn(C2CCC(=O)NC2=O)c1I (centres unmarked) [compound 49, 3-[5-iodo-4-(4-methoxythiophen-3-yl)-1H-1,2,3-triazol-1-yl]piperidine-2,6-dione] | 48 | 42 | 56 | 102 % of control |
| O=C1CCC(n2cc(-c3cscc3Cl)nn2)C(=O)N1 (centres unmarked) [compound 14, 3-[4-(4-chlorothiophen-3-yl)-1H-1,2,3-triazol-1-yl]piperidine-2,6-dione] | 43 | 49 | 64 | 113 % of control |
| Cc1ccc(-c2cn(C3CCC(=O)NC3=O)nn2)s1 (centres unmarked) [compound 5, 3-[4-(5-methylthiophen-2-yl)-1H-1,2,3-triazol-1-yl]piperidine-2,6-dione] | 66 | 82 | 72 | 97 % of control |
| COC(=O)c1scc(-c2cn(C3CCC(=O)NC3=O)nn2)c1OC (centres unmarked) [compound 16, methyl 4-[1-(2,6-dioxopiperidin-3-yl)-1H-1,2,3-triazol-4-yl]-3-methoxythiophene-2-carboxylate] | 85 | 83 | 90 | 90 % of control |
| CC(Oc1cscc1-c1cn(C2CCC(=O)NC2=O)nn1)c1ccccc1 (centres unmarked) [compound 44, 3-{4-[4-(1-phenylethoxy)thiophen-3-yl]-1H-1,2,3-triazol-1-yl}piperidine-2,6-dione] | 33 | 41 | 40 | 105 % of control |
| C[C@@H]1CN(Cc2ccc(COc3cscc3-c3cn(C4CCC(=O)NC4=O)nn3)cc2)C[C@H](C)O1 (stereo partly drawn) [compound 38, 3-{4-[4-(4-{[(2S,6R)-2,6-dimethylmorpholino]methyl}benzyloxy)thiophen-3-yl]-1H-1,2,3-triazol-1-yl}piperidine-2,6-dione] | 24 | 7 | 23 | 110 % of control |
| O=C1CCC(n2cc(-c3ccc(Br)s3)nn2)C(=O)N1 (centres unmarked) [compound 12, 3-[4-(5-bromothiophen-2-yl)-1H-1,2,3-triazol-1-yl]piperidine-2,6-dione] | 74 | 87 | 89 | 101 % of control |
| O=C1CCC(n2cc(-c3cc(Br)sc3Br)nn2)C(=O)N1 (centres unmarked) [compound 13, 3-[4-(2,5-dibromothiophen-3-yl)-1H-1,2,3-triazol-1-yl]piperidine-2,6-dione] | 79 | 95 | 93 | 132 % of control |
| COc1sccc1-c1cn(C2CCC(=O)NC2=O)nn1 (centres unmarked) [compound 18, 3-[4-(2-methoxythiophen-3-yl)-1H-1,2,3-triazol-1-yl]piperidine-2,6-dione] | 27 | 51 | 52 | 53 % of control |
| CCCOc1cscc1-c1cn(C2CCC(=O)NC2=O)nn1 (centres unmarked) [compound 21, 3-[4-(4-propoxythiophen-3-yl)-1H-1,2,3-triazol-1-yl]piperidine-2,6-dione] | 75 | 86 | 79 | 116 % of control |
| CCOc1cscc1-c1cn(C2CCC(=O)NC2=O)nn1 (centres unmarked) [compound 17, 3-[4-(4-ethoxythiophen-3-yl)-1H-1,2,3-triazol-1-yl]piperidine-2,6-dione] | 32 | 50 | 48 | 49 % of control |
